Activity calls are given as the source filed them. No cut-off for these calls is given here.
Experiments:
BMMC [1] = experiment: Inhibition of M-CSF/RANKL-induced osteoclast differentiation in mouse BMMC at 5 to 10 ug/ml after 4 days by TRAP staining method; format: functional, cell-based
BMMC [2] = experiment: Inhibition of M-CSF/RANKL-induced osteoclast differentiation in mouse BMMC after 4 days by TRAP staining method; format: functional, cell-based
Mus musculus [3] = species: Mus musculus; experiment: Inhibition of M-CSF/RANKL-induced ERK phosphorylation in mouse BMMC at 5 ug/ml preincubated with M-CSF for 6 mins followed by RANKL addition measured after 5 mins by Western blot method
Mus musculus [4] = species: Mus musculus; experiment: Inhibition of M-CSF/RANKL-induced JNK phosphorylation in mouse BMMC at 5 ug/ml preincubated with M-CSF for 6 mins followed by RANKL addition measured after 5 mins by Western blot method
[5] = target: MAP kinase p38 (Mus musculus) (UniProt P47811+O08911+Q9WUI1+Q9Z1B7); experiment: Inhibition of M-CSF/RANKL-induced p38 phosphorylation in mouse BMMC at 5 ug/ml preincubated with M-CSF for 6 mins followed by RANKL addition measured after 5 mins by Western blot method
[6] = target: T1, NF-kappa-B inhibitor alpha (Mus musculus) (UniProt Q9Z1E3); experiment: Effect on IkappaBalpha phosphorylation in mouse BMMC at 5 ug/ml preincubated with M-CSF for 6 mins followed by RANKL addition measured after 5 to 30 mins by Western blot method
T1 sequence (whole entry): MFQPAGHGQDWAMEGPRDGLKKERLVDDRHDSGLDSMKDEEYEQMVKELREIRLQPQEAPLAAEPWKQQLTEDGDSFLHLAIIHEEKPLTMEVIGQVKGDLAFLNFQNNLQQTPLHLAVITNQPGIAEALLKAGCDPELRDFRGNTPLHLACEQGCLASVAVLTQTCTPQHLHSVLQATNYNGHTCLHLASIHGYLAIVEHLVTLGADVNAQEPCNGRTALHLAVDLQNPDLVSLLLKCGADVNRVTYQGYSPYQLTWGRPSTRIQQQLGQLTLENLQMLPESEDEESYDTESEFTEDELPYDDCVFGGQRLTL

| inhibition (Mus musculus [3]) | inhibition (Mus musculus [4]) | inhibition [5] | Activity [6] | Compound | inhibition (BMMC [1]) | inhibition (BMMC [2]) |
| --- | --- | --- | --- | --- | --- | --- |
| – | – | – | – | C[C@@H]1CC[C@H]2C(C)(C)[C@H](O)CC[C@]2(C)[C@@]12Cc1c(O)cc3c(c1O2)C(=O)OC3 | inactive | – |
| Active | Active | Active | inactive | CC(=O)/C=C/c1c(CO)cc(O)c2c1O[C@]1(C2)[C@H](C)CC[C@H]2C(C)(C)[C@H](O)CC[C@@]21C | – | Dose-dependent effect |
